# Legend:
# VIOTR [1] = assay: Post-emergence herbicidal action against VIOTR; assay type: in vivo, Viola tricolor
# Protocol: (§1) Seeds of monocotyledonous and dicotyledonous weed and crop plants are laid out in sandy loam soil in wood-fiber pots, covered with soil and cultivated in a greenhouse under good growth conditions. 2 to 3 weeks after sowing, the test plants are treated at the one-leaf stage. The compounds of the invention, formulated in the form of wettable powders (WP) or as emulsion concentrates (EC), are then sprayed onto the green parts of the plants in the form of an aqueous suspension or emulsion at a water application rate equivalent to 600 to 800 l/ha, with addition of 0.2% wetting agent. After the test plants have been left to stand in the greenhouse under optimal growth conditions for about 3 weeks, the action of the preparations is assessed visually in comparison to untreated controls (herbicidal action in percent (%): 100% activity=the plants have died, 0% activity=like control plants). […] The tables below illustrate, in an illustrative manner, the post-emergence herbicidal action of the compounds of the invention, the herbicidal activity being stated in percent.
# VIOTR [2] = assay: Pre-emergence herbicidal action against VIOTR; assay type: in vivo, Viola tricolor
# From the text: (§2) Seeds of monocotyledonous and dicotyledonous weed plants and crop plants are laid out in sandy loam soil in wood-fiber pots and covered with soil. The compounds of the invention, formulated in the form of wettable powders (WP) or as emulsion concentrates (EC), are then applied to the surface of the covering soil in the form of an aqueous suspension or emulsion at a water application rate equivalent to 600 to 800 l/ha, with addition of 0.2% wetting agent. After the treatment, the pots are placed in a greenhouse and kept under good growth conditions for the trial plants. The damage to the test plants is scored visually after a test period of 3 weeks by comparison with untreated controls (herbicidal activity in percent (%): 100% activity=the plants have died, 0% activity=like control plants). […] The tables below illustrate, in an illustrative manner, the post-emergence herbicidal action of the compounds of the invention, the herbicidal activity being stated in percent.
# AMARE [3] = assay: Pre-emergence herbicidal action against AMARE; assay type: in vivo, Amaranthus retroflexus
# From the text: as §2
# ABUTH [4] = assay: Post-emergence herbicidal action against ABUTH; assay type: in vivo, Abutilon theophrasti; details: dosage 20 g/ha, visual assessment about 3 weeks after treatment vs untreated controls
# Protocol: as §1
# MATIN = assay: Pre-emergence herbicidal action against MATIN; assay type: in vivo, Matricaria inodora
# From the text: as §2
# SETVI [5] = assay: Pre-emergence herbicidal action against SETVI; assay type: in vivo, Setaria viridis
# From the text: as §2
# ECHCG [6] = assay: Post-emergence herbicidal action against ECHCG; assay type: in vivo, Echinochloa crus-galli
# Protocol: as §1
# ABUTH [7] = assay: Pre-emergence herbicidal action against ABUTH; assay type: in vivo, Abutilon theophrasti; details: for Pre-emergence action against ABUTH (herbicidal activity in percent): dosage 20 g/ha, scored visually after 3 weeks vs untreated controls, 100% = plants have died, 0% = like control plants
# From the text: as §2
# DIGSA = assay: Pre-emergence herbicidal action against DIGSA; assay type: in vivo, Digitaria sanguinalis
# From the text: as §2
# ECHCG [8] = assay: Pre-emergence herbicidal action against ECHCG; assay type: in vivo, Echinochloa crus-galli; details: 80 g/ha
# From the text: as §2
# AMARE [9] = assay: Post-emergence herbicidal action against AMARE; assay type: in vivo, Amaranthus retroflexus; details: 20 g/ha, visual assessment about 3 weeks after treatment, 100% = plants have died, 0% = like control plants
# Protocol: as §1
# PHBPU = assay: Post-emergence herbicidal action against PHBPU; assay type: in vivo, Pharbitis purpurea; details: dosage 20 g/ha
# Protocol: as §1
# ALOMY = assay: Pre-emergence herbicidal action against ALOMY; assay type: in vivo, Alopecurus myosuroides; details: 80 g/ha, pre-emergence, scored visually after 3 weeks vs untreated controls (100% = plants have died, 0% = like control plants)
# From the text: as §2
# SETVI [10] = assay: Post-emergence herbicidal action against SETVI; assay type: in vivo, Setaria viridis; details: dosage 20 g/ha
# Protocol: as §1
# [11] = 20 g/ha, scored visually after 3 weeks vs untreated controls, 100% = plants have died, 0% = like control plants
# [12] = 80 g/ha, scored visually after 3 weeks vs untreated controls (100% = plants have died, 0% = like control plants)
Compound,Pre-emergence action against AMARE in % (AMARE [3]; [11]) [%],Pre-emergence action against AMARE in % (AMARE [3]; [12]) [%],Pre-emergence action against MATIN in % (MATIN; dosage 80 g/ha) [%],Post-emergence action against ECHCG in % (ECHCG [6]; dosage 20 g/ha) [%],Pre-emergence action against ABUTH (herbicidal activity) (ABUTH [7]; [12]) [%],Pre-emergence action against DIGSA in % (DIGSA; dosage 80 g/ha) [%],Pre-emergence action against ECHCG in % (ECHCG [8]) [%],Post-emergence action at 20 g/ha against AMARE in % (AMARE [9]) [%],other results
CNC(=O)c1c(C(F)F)ccc(C(=O)Nc2nnc(C)o2)c1OC [Example 6-49],80,100,,,,,,,Post-emergence action against VIOTR in % (VIOTR [1]; 20 g/ha): 80%; Pre-emergence action against VIOTR in % (VIOTR [2]; dosage 20 g/ha): 80%; Pre-emergence action against VIOTR in % (VIOTR [2]; dosage 80 g/ha): 80%; Post-emergence action against ABUTH in % (ABUTH [4]): 80%
Cc1nnc(NC(=O)c2ccc(Br)c(C(=O)NCC(F)(F)F)c2Cl)o1 [Example 6-144],90,100,80,80,90,100,100,,Pre-emergence action against SETVI in % (SETVI [5]; dosage 80 g/ha): 90%; Pre-emergence action against DIGSA in % (DIGSA; dosage 20 g/ha): 90%
Cc1nnc(NC(=O)c2ccc(C(F)(F)F)c(C(=O)NCC(F)F)c2C2CC2)o1 [Example 6-230],100,100,80,,90,80,80,90,Post-emergence action against PHBPU in % (PHBPU): 80%
CNC(=O)c1c(C(F)F)ccc(C(=O)Nc2nnc(C)o2)c1C1CC1 [Example 6-231],,100,80,,,90,,90,Post-emergence action against VIOTR in % (VIOTR [1]; 5 g/ha): 90%; Post-emergence action against VIOTR in % (VIOTR [1]; 20 g/ha): 90%; Pre-emergence action against DIGSA in % (DIGSA; dosage 20 g/ha): 80%
Cc1nnc(NC(=O)c2ccc(C(F)F)c(C(=O)NCC3CC3)c2Br)o1 [Example 6-167],100,100,90,80,100,90,100,100,Pre-emergence action against SETVI in % (SETVI [5]; dosage 20 g/ha): 80%; Pre-emergence action against SETVI in % (SETVI [5]; dosage 80 g/ha): 80%; Pre-emergence action against VIOTR in % (VIOTR [2]; dosage 20 g/ha): 90%; Pre-emergence action against VIOTR in % (VIOTR [2]; dosage 80 g/ha): 100%; Pre-emergence action against ABUTH (herbicidal activity in percent) (ABUTH [7]): 90%
CCn1nnnc1NC(=O)c1ccc(C(F)F)c(C(=O)NCc2cccs2)c1Cl [Example 2-162],90,100,90,,,,80,100,Pre-emergence action against VIOTR in % (VIOTR [2]; dosage 80 g/ha): 80%
CCn1nnnc1NC(=O)c1ccc(C(F)F)c(C(=O)NCCSC)c1Cl [Example 2-157],,90,,,,,,90,
Cc1nnc(NC(=O)c2ccc(C(F)F)c(C(=O)Nc3ccccc3)c2Cl)o1 [Example 6-266],90,100,80,,80,,,100,Post-emergence action against PHBPU in % (PHBPU): 80%
Cn1nnnc1NC(=O)c1ccc(C(F)(F)F)c(C(=O)Nc2ccccc2)c1Cl [Example 1-143],,,,,,,,,"pest or weed control at 20 g/ha (MATIN; Tripleurospermum inodorum, 504 h, dosage 20 g/ha): 80%; pest or weed control at 80 g/ha (MATIN; Tripleurospermum inodorum, 504 h, dosage 80 g/ha): 100%; pest or weed control at 80 g/ha (AMARE [3]; Amaranthus retroflexus, 504 h, 80 g/ha, scored visually after 3 weeks vs untreated controls, 100% = plants have died, 0% = like control plants): 100%; pest or weed control at 80 g/ha (ABUTH [7]; Abutilon theophrasti, 504 h, 80 g/ha, scored visually after 3 weeks vs untreated controls (100% = plants have died, 0% = like control plants)): 100%; pest or weed control at 80 g/ha (DIGSA; Digitaria sanguinalis, 504 h, dosage 80 g/ha): 80%"
Cc1nnc(NC(=O)c2ccc(Br)c(C(=O)NCC3CC3)c2Cl)o1 [Example 6-143],100,100,,,100,100,,,Pre-emergence action against ABUTH (herbicidal activity in percent) (ABUTH [7]): 100%
CSc1c(C(=O)Nc2nnc(C)o2)ccc(C(F)(F)F)c1C(=O)NC1CC1 [Example 6-60],,100,90,90,90,,80,100,Post-emergence action against ABUTH in % (ABUTH [4]): 90%
N#CCNC(=O)c1c(C(F)(F)F)ccc(C(=O)Nc2nnco2)c1Cl [Example 5-254],,100,,,100,,,80,Pre-emergence action against VIOTR in % (VIOTR [2]; dosage 80 g/ha): 90%
COc1c(C(=O)Nc2nnc(C)o2)ccc(C(F)F)c1C(=O)NC1CC1 [Example 6-51],80,100,,80,100,100,,,
CSCCNC(=O)c1c(C(F)F)ccc(C(=O)Nc2nnnn2C)c1Cl [Example 1-157],,100,,,,,,,
Cn1nnnc1NC(=O)c1ccc(C(F)F)c(C(=O)NCc2cccs2)c1Cl [Example 1-162],90,100,90,80,,,100,90,Post-emergence action against PHBPU in % (PHBPU): 80%; Pre-emergence action against SETVI in % (SETVI [5]; dosage 80 g/ha): 80%; Pre-emergence action against ALOMY (herbicidal activity) (ALOMY): 90%
Cc1nnc(NC(=O)c2ccc(Br)c(C(=O)NC(C)C3CC3)c2Cl)o1 (stereo not shown) [Example 6-257],,100,90,90,100,100,80,,Pre-emergence action against MATIN in % (MATIN; dosage 20 g/ha): 80%; Post-emergence action against ECHCG in % (ECHCG [6]; dosage 5 g/ha): 80%
CCNC(=O)c1c(C(F)F)ccc(C(=O)Nc2nnc(C)o2)c1OC [Example 6-50],100,100,80,80,90,100,,,Post-emergence action against VIOTR in % (VIOTR [1]; 20 g/ha): 80%; Post-emergence action against ABUTH in % (ABUTH [4]): 80%
CCn1nnnc1NC(=O)c1ccc(C(F)F)c(C(=O)NCCSC)c1C [Example 2-347],,,,,100,,,,
CSc1c(C(=O)Nc2nnc(C)o2)ccc(C(F)F)c1C(=O)NC1CC1 [Example 6-76],,100,90,80,,,,100,Pre-emergence action against SETVI in % (SETVI [5]; dosage 80 g/ha): 80%; Post-emergence action against SETVI in % (SETVI [10]): 80%
Cn1nnnc1NC(=O)c1ccc(C(F)(F)F)c(C(=O)NCC#N)c1Cl [Example 1-140],,100,,,,,,80,Post-emergence action against VIOTR in % (VIOTR [1]; 20 g/ha): 80%; Pre-emergence action against VIOTR in % (VIOTR [2]; dosage 80 g/ha): 90%
Cc1nnc(NC(=O)c2ccc(C(F)F)c(C(=O)NCC(=O)N(C)C)c2Cl)o1 [Example 6-265],,80,,,,,,,
Cc1nnc(NC(=O)c2ccc(C(F)F)c(C(=O)NC3CC3)c2C2CC2)o1 [Example 6-233],,80,,80,,90,,,
